For data set [1] the following is noted: reason it must be taken intravenously; cited from earlier work.
Data set [2] has as its system human PBM cells. Kind of data set: Cytotoxicity assay on uninfected PHA stimulated human PBMC (trypan blue). The data set is classed as cell-based. As to conditions: Table 1; read-out: IC50 Toxicity in Human PBM Cells. On the procedure:
Cells. […] PBS), and pelleted at 300×g for 10 minutes. […] Cytotoxicity assay. The drugs were evaluated for their potential toxic effects on uninfected PHA stimulated human PBMC. Flasks were seeded so that the final cell concentration was 2×10^5 cells/ml. The cells were cultured with and without drug for 6 days, at which time aliquots were counted for cell viability, as assessed by the trypan blue dye-exclusion method using a hemacytometer. The median inhibitory concentration (IC50) was calculated using the median effect method (Chou et al, Elsevier-Biosoft, Elsevier Science Publishers, Cambridge, U.K., 1985; Chou et al, Adv. Enz. Regul. 22, 27-55, 1984). Median-effect method. Dose-effect relationships were analyzed by the median-effect equation (Chou et al, Adv. Enz. Regul. 22, 27-55, 1984). The slope (m) and median effective and inhibitory concentration (EC50 and IC50) values were obtained by using a computer program developed by Chou and Chou (Chou et al, Elsevier-Biosoft, Elsevier Science Publishers, Cambridge, U.K., 1985).

The conditions of data set [3]: background statement; AZT in a clinical setting; cited from earlier work.
The test system of data set [4] is human bone marrow cells. As to conditions: background statement; cited from earlier work.
In data set [5] the test system is human granulocyte-macrophage precursor cells. The class given is cell-based. The source says:
Preparation of Cells. Human bone marrow cells were collected by aspiration from the posterior iliac crest of normal healthy volunteers, treated with heparin and the mononuclear population separated by Ficoll-Hypaque gradient centrifugation. Cells were washed twice in Hanks balanced salt solution, counted with a hemacytometer and their viability was >98% as assessed by trypan blue exclusion.
Assay of Colony-Forming Unit Granulocyte-Macrophage (CFU-GM) for Drug Cytotoxicity. The culture assay for CFU-GM was performed using a bilayer soft-agar method as recently described (Sommadossi et al, Antimicrob. Agents Chemother. 31, 452-454, 1987). McCoy 5A nutrient medium supplemented with 15% dialyzed fetal bovine serum (heat inactivated at 56° C. for 30 min.) (Gibco Laboratories, Grand Island, N.Y.) was used in all experiments. This medium was completely lacking in thymidine and uridine. Cells were cloned in 0.3% agar in the presence of increasing concentrations of the modulating compound or in medium alone (control). After 14 days of incubation at 37° C. in a humidified atmosphere of 5% CO2 in air, colonies (≧50 cells) were counted using an inverted microscope.
The toxicities of a variety of polyoxometalates with respect to human bone marrow cells (human granulocyte-macrophage precursor cells) were assessed.

A short description of data set [6]: Comparison of toxicity of polyoxometalate compounds in mice (mortality, haematology). The data set is classed as in vivo. Also noted: MCV (mean corpuscular volume): unit not given here. As to conditions: BID × 6, 60 mkd i.p. The source says:
Comparison of Toxicity of Polyoxometalate Compounds Mice.
In vivo antiviral experiments. […] Treatment was continued daily for 6 or 10 days.

Data set [7] has as its system HIV-1 (strain LAV-1). Kind of data set: microbe, parasite or virus in culture. The class given is cell-based. How it is done: Cells. Human peripheral blood mononuclear cells (PBMC) from healthy HIV-1 seronegative and hepatitis B virus seronegative donors were isolated by Ficoll-Hypaque discontinuous gradient centrifugation at 1,000×g for 30 minutes, washed twice in phosphate-buffered saline (pH 7.2; PBS), and pelleted at 300×g for 10 minutes. Before infection, the cells were stimulated by phytohemagglutinin (PHA) at a concentration of 6 μg/ml for three days in RPMI 1640 medium supplemented with 15% heat-inactivated fetal calf serum, 1.5 mM L-glutamine, penicillin (100 U/ml), streptomycin (100 μg/ml), and 4mM sodium bicarbonate buffer.
Viruses. HIV-1 (strain LAV-1) was obtained from Dr. P. Feorino (Centers for Disease Control, Atlanta, Ga.). The virus was propagated in human PBMC using RPMI 1640 medium, as described previously (McDougal et al, J. Immun. Meth. 76, 171-183, 1985) without PHA and supplemented with 7% v/v interleukin-2 (Advanced Biotechnologies, Silver Spring, Md.), 7 μg/ml DEAE-dextran (Pharmacia, Uppsala, Sweden), and 370 U/ml anti-human leucocyte (alpha) interferon (ICN, Lisle, Ill.). Virus obtained from cell-free culture supernatant was titrated and stored in aliquots at −80° C. until use.
Inhibition of virus replication in human PBMC. Uninfected PHA-stimulated human PBMC were uniformly distributed among 25 cm^2 flasks to give a 5 ml suspension containing about 2×10^6 cells/ml. Suitable dilutions of virus were added to infect the cultures. The mean reverse transcriptase (RT) activity of the inocula was 50,000 decompositions per min/ml corresponding to about 100 TCID50, as determined by Groopman et al. (Groopman et al, AIDS Res. Human Retro. 3, 71-85, 1987. The drugs at twice their final concentrations in 5 ml of RPMI 1640 medium, supplemented as described above, were added to the cultures. Uninfected and untreated PBMC at equivalent cell densities were grown in parallel as controls. The cultures were maintained in a humidified 5% CO2-95% air incubator at 37° C. for six days after infection, at which point all cultures were sampled for supernatant reverse transcriptase (RT) activity.
RT activity assay. Six ml supernatant from each culture was clarified from cells at 300×g for 10 minutes. Virus particles were pelleted from 5 ml samples at 40,000 rpm for 30 minutes using a Beckman 70.1 Ti rotor and suspended in 200 μl of virus disrupting buffer (50 mM Tris-Cl, pH 7.8, 800 mM NaCl, 20% glycerol, 0.5 mM phenylmethyl sulfonyl fluoride, and 0.5% Triton X-100).
The RT assay was performed in 96-well microtiter plates, as described by Spira et al. (Spira et al, J. Clin. Microbiol. 22, 97-99, 1987). The reaction mixture, which contained 50 mM Tris-Cl pH 7.8, 9 mM MgCl2, 5 mM dithiothreitol (DTT), 4.7 μg/ml (rA)n. (dT)12-18, 140 μM dATP, and 0.22 μM [^3H]TTP, specific activity 78.0 Ci/mmol, equivalent to 17,300 cpm/pmol; NEN Research Products, Boston, Mass., was added to each well. The sample (20 μl) was added to the reaction mixture which was then incubated at 37° C. for 2 hours. The reaction was terminated by the addition of 100 μl 10% trichloroacetic acid (TCA) containing 0.45 mM sodium pyrophosphate. The acid-insoluble nucleic acids which precipitated were collected on glass filters using a Skatron semi-automatic harvester. The filters were washed with 5% TCA and 70% ethanol, dried, and placed in scintillation vials. Four ml of scintillation fluid (Econofluor, NEN Research Products, Boston, Mass.) were added and the amount of radioactivity in each sample was determined using a Packard Tri-Carb liquid scintillation analyzer (model 2,000CA). The results were expressed in dpm/ml of original clarified supernatant.
Median-effect method. Dose-effect relationships were analyzed by the median-effect equation (Chou et al, Adv. Enz. Regul. 22, 27-55, 1984).

For data set [8], the system named is Mouse Ecotropic, CNS (CAS-Br-M). Kind of data set: UV/XC assay for murine retroviruses in SC-1 cells. The class given is cell-based, murine retrovirus. Conditions: Table 2; read-out: EC-50 Mouse Ecotropic, CNS (CAS-Br-M).
Description: UV/XC Assay for Murine Retroviruses Cells. Mouse embryo fibroblasts (SC-1) and XC cells were obtained from the American Type Culture Collection, Rockville, Md. […] The cells were maintained in Eagle's minimum essential medium with Hanks balanced salt solution, supplemented with penicillin (100 U/ml), streptomycin (100 μg/ml), sodium bicarbonate (24 mM), Hepes (25 mM), and either 2 (maintenance) or 10 (growth) percent inactivated newborn or fetal calf serum.
Virus quantitation by UV-XC assay. The XC test (Rowe et al, Virology 42, 1136-1139, 1970) is a plaque-type of assay which tests for the presence and titer of B- and N-tropic murine leukemia viruses. Because these viruses produce no overt signs of infection of SC-1 mouse cells, it is necessary to overlay the virus producing culture with an indicator cell line, XC. The number of syncytia that are produced is a direct measure of the virus titer in FFU.
Six-well plates were seeded with 1×10^5 SC-1 mouse cells on the first day. On the following day the medium was removed and the inoculum (0.2 ml) was added in medium containing polybrene (4 μg/ml). For determining the antiviral activity of the compounds in culture, the virus dilution selected produced in untreated cultures about 80 foci per well. […] Control cells without virus but receiving the drug provided an estimate of the drug's toxic effects as quantitated by using trypan blue staining.
In data set [9] the target is T1, HIV-1 reverse transcriptase (Human immunodeficiency virus type 1 group M subtype B, UniProt P04585).
T1 construct: HIV-1 RT was isolated from detergent disrupted virions; made in house; host or cells: virions pelleted from culture fluid of HIV-1-infected PHA-stimulated human PBMC; DEAE-cellulose and phosphocellulose chromatography
Kind of data set: Evaluation of compounds on purified retroviral RT (cell-free, virion-derived). The class given is biochemical. Conditions: Table 2; read-out: EC-50 Cell-Free RT (virion-derived). On the procedure: Evaluation of compounds on purified retroviral RT. HIV-1 RT was isolated from detergent disrupted virions obtained from the cell-free supernatant of infected PHA-stimulated PBMC. The enzyme was purified by passing the extract through ion-exchange chromatography columns, as described previously (Eriksson et al, Antimicrob. Agents Chemother. 31, 600-604, 1977. Briefly, 750 ml of culture fluid harvested from HIV-1-infected PBMC were ultracentrifuged to pellet the virus. The pellet was dissolved in buffer A [50 mM Tris-HCl, pH 7.9/0.25% Nonidet P-40/5 mM dithiothreitol/20% (vol/vol) glycerol] containing 1 mM EDTA, and freeze-thawed four times. After clarification by centrifugation, the enzyme was partially purified from the supernatant by passing the extract through a DEAE-cellulose column (Whatman DE-52; 2.6×15 cm) previously equilibrated with buffer B (50 mM Tris-Cl, pH 7.9, 50 mM KCl, 1 mM EDTA, 1 mM dithiothreitol, 20% glycerol). Elution was performed using a linear gradient 50-500 mM KCl in buffer B. Fractions containing enzyme activity were dialyzed against buffer B and were further purified on a phosphocellulose column (Whatman P-11) using a linear KCl (50-500 mM) gradient in buffer B. The peak fractions were pooled and dialyzed against buffer B. The enzyme was characterized as HIV-1 reverse transcriptase based on its cation, salt, pH, and template requirements according to previous descriptions (Eriksson et al, Antimicrob. Agents Chemother. 31, 600-604, 1977). The standard reaction mixture was used to evaluate the inhibitory effect of the drugs, as previously described (Eriksson et al, Antimicrob. Agents Chemother. 31, 600-604, 1977). Briefly, the reaction mixtures (final volume 100 μl) contained 100 mM Tris-HCl, pH 8.0, 50 mM KCl, 2 mM MgCl2, 5 mM DTT, 400 ug/ml bovine serum albumin, 3 μg/ml (rA)·(dT)12-18 and 1 μM of [^3H]TTP (specific activity 82.3 Ci/mmol). The reactions were started by the addition of 10 μl of partially purified RT, incubated at 37° C. for 60 min., and processed as previously described (Eriksson et al, Antimicrob. Agents Chemother. 31, 600-604, 1977).
Median-effect method. Dose-effect relationships were analyzed by the median-effect equation (Chou et al, Adv. Enz. Regul. 22, 27-55, 1984). The slope (m) and median effective and inhibitory concentration (EC50 and IC50) values were obtained by using a computer program developed by Chou and Chou (Chou et al, Elsevier-Biosoft, Elsevier Science Publishers, Cambridge, U.K., 1985).

Setting [10] is: Table 2, several values per cell, some in brackets, read-out: EC-50 HIV-1 (LAV-1).

Results on 2 substances are retold here after patent publication US6911470B1, “Polyoxometalate compounds as antiviral agents” (priority 1988, dated 2005).

Where two headings read alike, the source gives them in different places.

As to “(NH4)17Na[NaSbgW21O86] [Formula 1, reference compound]”, in [1], the “pH at which it degrades” value is on record as below 4. For the same substance, the half-inhibitory concentration (IC50) (in general, the midpoint of a concentration-inhibition curve) in data set [2] was determined as 35000 nM. Further, the adverse effect result in data set [3] was “induces thrombocytopenia”. Besides, in data set [4], the “toxicity to human bone marrow cells” value was “high toxicity”. Moreover, the “toxicity to human bone marrow cells (order of toxicity, FIG. 6)” value in data set [5] is given as “most toxic”. Besides, in data set [6] (bled on day 17), the “Hct (hematocrit)” value came out at 14.82 ± 4.44%, the “Hgb (hemaglobin)” value was 5.5 ± 1.43 g/dL, the MCH was determined as 17.64 ± 2.07 pg and the “MCHC (mean corpuscular hemoglobin concentration)” value is reported as 37.66 ± 4.32 g/dL. For the same substance, in [6] (bled on day 17), the “MCV (mean corpuscular volume)” value is given as 46.86 ± 0.4, the “PLT (platelates) (×1000)” value is recorded as 226.4 ×1000, the “RBC (×1000000)” value was 3.16 ± 0.95 ×1000000 and the “RDW (width of red cells)” value is given as 35.6 ± 2.12%. Further, the “WBC (×1000)” value in [6] (bled on day 17) is 4.16 ± 1.45 ×1000. In data set [6] (dead/total), the Mortality was 0/5. Also, in [7] (Table 1, read-out: EC50 Anti-HIV-1 Activity in Human PBM Cells), the EC50 turned out to be 390 nM. Besides, the EC50 in data set [7] (setting [10]) was 290 nM.
On to K5BW12O40 [α-K5BT], for which the EC50 in data set [8] stood at 910 nM; in [9], 2900 nM; in [7] (setting [10]) it was 360 nM.
